# Data from US20190367871A1, “EMBRYONIC STEM CELL MEDIA AND CULTURE” (YISSUM RESEARCH DEVELOPMENT COMPANY OF THE HEBREW …, priority 2018, published 2019).
# Key:
# hESCs [1] = test: Effect of Bax inhibition on hESC growth (CellTiter-Glo luminescence); type: cell-based, human; details: 100 or 200 uM, after 24 hours, vs 0 uM
# Procedure: Next, we examined the effect of Bax inhibition on hESC growth. hESCs were treated with either 0, 100, or 200 uM of BAX-inhibiting peptide V5 (BIP-V5, Sigma). At time point zero when the peptide was added CellTiter-Glo reagent was also added to the cells and luminescence was measured with a plate reader. Bax inhibition increased the relative growth of the hESCs by 15-25% after 24 hours (FIG. 13).
# diploid hESCs = test: Growth curve of hESCs (CellTiter-Glo luminescent cell viability assay); type: cell-based, human
# Procedure: All genes were targeted with commercial pooled siRNAs to increase the specificity of the knockdown. esiRNAs for SALL4, DSCC1 and SEPHS1 and the control esiRNA for Renilla luciferase were obtained from Sigma (cat. nos. EHU037061, EHU021301, EHU107861 and EHURLUC, respectively). siRNA for VRTN was obtained from GE Healthcare Dharmacon (cat. no. L-021159-02-0005). Briefly, 30-50 nM siRNA was mixed with 0.14 μl of DharmaFECT 1 transfection reagent (GE Healthcare Dharmacon) in Opti-MEM I reduced serum medium (Thermo Fisher Scientific) for 30 min. The transfection mix was added on a matrigel-coated well of a 96-well plate and 3,000 hESCs were plated on the transfection mix in the presence of mTeSR 1 medium. The cells were subsequently grown for 3-4 days and the mTeSR 1 medium was replaced every 24 h. Cell viability was assessed by a CellTiter-Glo luminescent cell viability assay according to the manufacturer's instructions (Promega). Luminescence reads for the target genes were normalized to control siRNA conditions, and the replicate experiments were averaged. For growth curves of IGF1-treated and control hESCs, cells were plated in matrigel-coated wells with equal numbers and their density was measured for four consecutive days with CellTiter-Glo luminescent cell viability assay (Promega). The density measured one day after plating was considered Day 0, after which cells were switched to MEF-conditioned medium containing 100 ng ml^−1 IGF1. Every day was normalized to Day 0 and replicate experiments were averaged.
# [2] = test system: human foreskin fibroblasts; test: Growth of fibroblasts under mTOR inhibitor treatment (CellTiter-Glo); type: cell-based; details: two days of treatment, low nanomolar concentrations
# hESCs [3] = test: Cell-cycle profile by PI staining and flow cytometry; type: cell-based, human; details: IGF1-treated vs control diploid hESCs
# Procedure: PI staining was performed as described in Sagi, I., Egli, D. & Benvenisty, N. Identification and propagation of haploid human pluripotent stem cells. Nat. Protoc. 11, 2274-2286 (2016). Briefly, hESCs were trypsinized with TrypLE Select and fixed with cold methanol (4° C.). Fixed cells were treated with 200 μg ml^−1 RNase A (Sigma) for 30 min and stained with 50 μg ml^−1 PI for 5 min. Stained cells were filtered through a 70 μm cell strainer and analysed in BD FACSAria III for their cell-cycle profile.
# hESCs [4] = test: Apoptosis assay (Annexin V / PI flow cytometry); type: cell-based, human; details: IGF1-treated vs control diploid hESCs
# From the text: hESCs were trypsinized gently with TrypLE Select. Apoptotic cells were labelled with Annexin V and propidium iodide (PI) using the MEBCYTO Apoptosis Kit according to the manufacturer's instructions (MBL). Labelled cells were filtered through a 70 μm cell strainer and analysed in BD FACSAria III for the proportion of annexin V-positive cells.
# hESCs [5] = test: TRA-1-60 immunocytochemistry (flow cytometry of TRA-1-60-positive pluripotent cells); type: cell-based, human; details: IGF1-treated vs control diploid hESCs
# Procedure: hESCs were trypsinized with TrypLE Select. Cells were collected in cold PBS containing 10% KSR, centrifuged at 300 g for 5 min and resuspended in 200 μl PBS containing 10% KSR. PE-conjugated mouse anti-human TRA-1-60 antibody (1:40, BD Biosciences) was then incubated with the cells for 30 min at 4° C. Cells were washed with PBS containing 10% KSR twice, centrifuged at 300 g at 4° C. and resuspended in PBS with 10% KSR. Immunolabelled cells were filtered through a 70 μm cell strainer and analysed in BD FACSAria III for the proportion of TRA-1-60-positive cells.
# [6] = target: Bax (BCL2 associated X, apoptosis regulator) (human) (UniProt Q07812); test: cell-based or functional assay
# Sequence of UniProt Q07812 (Q07812 whole entry): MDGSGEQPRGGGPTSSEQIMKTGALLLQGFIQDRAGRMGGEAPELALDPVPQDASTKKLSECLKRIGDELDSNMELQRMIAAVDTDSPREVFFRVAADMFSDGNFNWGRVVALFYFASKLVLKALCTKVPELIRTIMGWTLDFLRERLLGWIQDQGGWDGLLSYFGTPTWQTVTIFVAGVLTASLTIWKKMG
compound,measurement,setting,value
BAX-inhibiting peptide V5 [BIP-V5],increase in relative growth of hESCs,hESCs [1],15-25%
"CCC(=O)N1CCN(c2ccc(-n3c(=O)ccc4cnc5ccc(-c6cnc7ccccc7c6)cc5c43)cc2C(F)(F)F)CC1 [Torin 1, reference compound]",growth and survival of hESCs,"diploid hESCs; two days of treatment, low nanomolar concentrations",completely abolished
same,growth inhibition of fibroblasts,[2],up to 60%
insulin like growth factor 1 [IGF1],cell-cycle (cells in G2/M phase),hESCs [3],not affecting
same,percentage of apoptotic hESCs,hESCs [4],significantly decreases the percentage of apoptotic hESCs
same,growth rate of diploid hESCs,"diploid hESCs; IGF1 100 ng ml^-1 in MEF-conditioned medium, especially low levels of KSR, vs untreated control",significantly increased the growth rate
same,rescue of rapamycin growth-inhibition of hESCs,diploid hESCs; rapamycin + IGF1 vs rapamycin alone,failed to rescue
same,differentiation dynamics (TRA-1-60+ pluripotent cells),hESCs [5],not affecting
BAX-inhibiting peptide V5,relative growth of hESCs (CellTiter-Glo luminescence) after 24 hours,[6],15 to 25%
